# Measurements as given in publication doi:10.1101/2021.10.07.463234v2 (biorxiv, 2021).
# Structures can show the parent of a compound that is named as a salt.
# Biological target: SARS-CoV-2 Mac1 (Severe acute respiratory syndrome coronavirus 2, UniProt P0DTD1)
# Assay: biochemical
# Conditions: 100 µM; inhibitor
row,Compound,%inhibition
1,CN(C)CC(c1ccc(O)cc1)C1(O)CCCCC1 (stereo not drawn) [Desvenlafaxine],6.836%
2,C[C@@H]1C[C@H]2[C@@H]3CCC4=CC(=O)C=C[C@]4(C)[C@@]3(F)[C@@H](O)C[C@]2(C)[C@@]1(O)C(=O)CO [Dexamethasone (DHAP)],0%
3,Cc1cccc([C@H](C)c2c[nH]cn2)c1C [Dexmedetomidine HCl],0%
4,Cc1cccc([C@H](C)c2c[nH]cn2)c1C [Dexmedetomidine],18.38%
5,"C[C@@H](CN1CC(=O)NC(=O)C1)N1CC(=O)NC(=O)C1 [Dexrazoxane HCl (ICRF-187, ADR-529)]",32.25%
6,C[C@@H](CN1CC(=O)NC(=O)C1)N1CC(=O)NC(=O)C1 [Dexrazoxane],12.37%
7,O=C(O)Cc1ccccc1Nc1c(Cl)cccc1Cl [Diclofenac Diethylamine],0%
8,O=C(O)Cc1ccccc1Nc1c(Cl)cccc1Cl [Diclofenac Potassium],7.108%
9,O=C(O)Cc1ccccc1Nc1c(Cl)cccc1Cl [Diclofenac Sodium],15.35%
10,CC(C)N(CCC(C(N)=O)(c1ccccc1)c1ccccn1)C(C)C (stereo not drawn) [Disopyramide Phosphate],0%
11,CC(C)N(CCC(C(N)=O)(c1ccccc1)c1ccccn1)C(C)C (stereo not drawn) [Disopyramide],8.31%
12,CCN(CC)C(=S)SSC(=S)N(CC)CC [Disulfiram],0%

# Same assay, conditions: read-out: %inhibition
row,Compound,inhibition at 100 µM
1,Nc1ncn([C@H]2C[C@H](O)[C@@H](CO)O2)c(=O)n1 [Decitabine],0%
2,"CNC(=O)c1ccc(Nc2ncc(C(F)(F)F)c(NCc3nccnc3N(C)S(C)(=O)=O)n2)cc1 [Defactinib (VS-6063, PF-04554878)]",0%
3,O=C(O)c1ccc(-n2nc(-c3ccccc3O)nc2-c2ccccc2O)cc1 [Deferasirox],16.8%
4,Cc1c(O)c(=O)ccn1C [Deferiprone],0%
5,CC(=O)OCC(=O)[C@@]12N=C(C)O[C@@H]1C[C@H]1[C@@H]3CCC4=CC(=O)C=C[C@]4(C)[C@H]3[C@@H](O)C[C@@]12C [Deflazacort],37.4%
6,C[C@H](CCC(=O)O)[C@H]1CC[C@H]2[C@@H]3C(=O)C[C@@H]4CC(=O)CC[C@]4(C)[C@H]3CC(=O)[C@]12C [Dehydrocholic acid],0%
7,CC(=O)O[C@H]1CC[C@@]2(C)C(=CC[C@@H]3[C@@H]2CC[C@]2(C)C(=O)CC[C@@H]32)C1 [Dehydroepiandrosterone acetate],15.8%
8,C[C@]1(COc2ccc(N3CCC(Oc4ccc(OC(F)(F)F)cc4)CC3)cc2)Cn2cc([N+](=O)[O-])nc2O1 [Delamanid],22.1%
9,CC(C)C[C@H](NC(=O)[C@@H](NC(=O)c1cccc(-c2ccccc2)n1)[C@@H](C)O)B(O)O [Delanzomib (CEP-18770)],0%
10,CCOC(=O)[C@H](CCc1ccccc1)N[C@@H](C)C(=O)N(CC(=O)O)C1Cc2ccccc2C1 [Delapril Hydrochloride],0.215%
11,CN(C)[C@@H]1C(O)=C(C(N)=O)C(=O)[C@@]2(O)C(O)=C3C(=O)c4c(O)ccc(Cl)c4[C@@H](O)[C@H]3C[C@@H]12 [Demeclocycline HCl],4.3%
12,C[C@H](CCC(=O)O)[C@H]1CC[C@H]2[C@@H]3CC[C@@H]4C[C@H](O)CC[C@]4(C)[C@H]3C[C@H](O)[C@]12C [Deoxycholic acid],0%
13,CC(=O)OCC(=O)[C@H]1CC[C@H]2[C@@H]3CCC4=CC(=O)CC[C@]4(C)[C@H]3CC[C@]12C [Deoxycorticosterone acetate],3.46%
14,CNCCCN1c2ccccc2CCc2ccccc21 [Desipramine Hydrochloride],15.3%
15,N=C(N)NCCC[C@@H](NC(=O)[C@@H]1CCCN1C(=O)[C@@H]1CSSCCC(=O)N[C@@H](Cc2ccc(O)cc2)C(=O)N[C@@H](Cc2ccccc2)C(=O)N[C@@H](CCC(N)=O)C(=O)N[C@@H](CC(N)=O)C(=O)N1)C(=O)NCC(N)=O [Desmopressin Acetate],8.25%
16,C#C[C@]1(O)CC[C@H]2[C@@H]3CCC4=CCCC[C@@H]4[C@H]3C(=C)C[C@@]21CC [Desogestrel],0%
17,CC1(C)O[C@@H]2C[C@H]3[C@@H]4CCC5=CC(=O)C=C[C@]5(C)[C@H]4[C@@H](O)C[C@]3(C)[C@]2(C(=O)CO)O1 [Desonide],17.1%
18,CN(C)CC(c1ccc(O)cc1)C1(O)CCCCC1 (stereo not drawn) [Desvenlafaxine Succinate],7.7%
19,Cc1cccc(Cc2c[nH]cn2)c1C [Detomidine HCl],0%

row,Compound,inhibition at 100 µM
1,CC(=O)OCC(=O)[C@@]1(O)[C@H](C)C[C@H]2[C@@H]3CCC4=CC(=O)C=C[C@]4(C)[C@@]3(F)[C@@H](O)C[C@@]21C [Dexamethasone Acetate],0%
2,Cc1c(OCC(F)(F)F)ccnc1C[S@@+]([O-])c1nc2ccccc2[nH]1 [Dexlansoprazole],13.9%
3,COc1ccc2c(c1)[C@]13CCCC[C@@H]1[C@H](C2)N(C)CC3 [Dextromethorphan hydrobromide hydrate],8.58%
4,OC[C@H]1OC(O)[C@H](O)[C@@H](O)[C@@H]1O (stereo partly drawn) [Dextrose],0%
5,CC(=O)Oc1cccc2c1C(=O)c1c(OC(C)=O)cc(C(=O)O)cc1C2=O [Diacerein],3.21%
6,C=C=CCNC(=O)c1ccc(F)cc1 [Diastase],0%
7,CC(=O)Nc1c(I)c(NC(C)=O)c(I)c(C(=O)O)c1I [Diatrizoate sodium],7.54%
8,CC1=Nc2ccc(Cl)cc2S(=O)(=O)N1 [Diazoxide],0%
9,CCCC(=O)Nc1ncnc2c1ncn2[C@@H]1O[C@@H]2COP(=O)(O)O[C@H]2[C@H]1OC(=O)CCC [Dibutyryl-cAMP (Bucladesine)],4.86%
10,Oc1ccc(Cl)cc1Cc1cc(Cl)ccc1O [Dichlorophene],15%
11,NS(=O)(=O)c1cc(Cl)c(Cl)c(S(N)(=O)=O)c1 [Dichlorphenamide (Diclofenamide)],3.01%
12,N#CC(c1ccc(Cl)cc1)c1c(Cl)cc(-n2ncc(=O)[nH]c2=O)cc1Cl (stereo not drawn) [Diclazuril],0%
13,Cc1onc(-c2c(Cl)cccc2Cl)c1C(=O)N[C@@H]1C(=O)N2[C@@H]1SC(C)(C)[C@@H]2C(=O)O [Dicloxacillin Sodium],10.8%
14,O=c1oc2ccccc2c(O)c1Cc1c(O)c2ccccc2oc1=O [Dicoumarol],13.4%
15,C[C@]12CCC3=C4CCC(=O)C=C4CC[C@H]3[C@@H]1CC[C@@]2(O)CC#N [Dienogest],22%
16,CCN(CC)C(=O)N1CCN(C)CC1 [Diethylcarbamazine citrate],0%
17,CN1CCN(c2cc3c(cc2F)c(=O)c(C(=O)O)cn3-c2ccc(F)cc2)CC1 [Difloxacin HCl],2.61%
18,O=C(O)c1cc(-c2ccc(F)cc2F)ccc1O [Diflunisal],0.967%
19,CCCC(=O)O[C@]1(C(=O)COC(C)=O)CC[C@H]2[C@@H]3C[C@H](F)C4=CC(=O)C=C[C@]4(C)[C@@]3(F)[C@@H](O)C[C@@]21C [Difluprednate],22.2%

row,Compound,inhibition at 100 µM
1,C[C@H]1O[C@@H](O[C@H]2[C@@H](O)C[C@H](O[C@H]3[C@@H](O)C[C@H](O[C@H]4CC[C@@]5(C)[C@H](CC[C@@H]6[C@@H]5C[C@@H](O)[C@]5(C)[C@@H](C7=CC(=O)OC7)CC[C@]65O)C4)O[C@@H]3C)O[C@@H]2C)C[C@H](O)[C@@H]1O [Digoxin],13.2%
2,N/N=c1\[nH][nH]/c(=N\N)c2ccccc12 [Dihydralazine sulphate],45.1%
3,C[C@H]1[C@@H](O)O[C@@H]2O[C@@]3(C)CC[C@H]4[C@H](C)CC[C@@H]1[C@@]24OO3 [Dihydroartemisinin (DHA)],0%
4,CN[C@@H]1[C@H](O[C@H]2[C@H](O[C@H]3[C@H](O)[C@@H](O)[C@H](N=C(N)N)[C@@H](O)[C@@H]3N=C(N)N)O[C@@H](C)[C@]2(O)CO)O[C@@H](CO)[C@H](O)[C@H]1O [Dihydrostreptomycin sulfate],6.08%
5,Oc1c(I)cc(I)c2cccnc12 [Diiodohydroxyquinoline],6.28%
6,COc1ccc([C@@H]2Sc3ccccc3N(CCN(C)C)C(=O)[C@@H]2OC(C)=O)cc1 [Diltiazem HCl],25.7%
7,Cc1ccc2c(c1)[C@]13CCCC[C@@H]1[C@H](C2)N(C)CC3 [Dimemorfan phosphate],0%
8,O=S(=O)(O)CCSSCCS(=O)(=O)O [Dimesna],22.1%
9,COC(=O)/C=C/C(=O)OC [Dimethyl Fumarate],23.8%
10,Cc1c(C(N)=O)cc([N+](=O)[O-])cc1[N+](=O)[O-] [Dinitolmide],6.05%
11,CCCCC[C@H](O)/C=C/[C@@H]1[C@@H](C/C=C\CCCC(=O)O)[C@@H](O)C[C@H]1O [Dinoprost tromethamine],32.6%
12,COc1ccc(-c2cc(=O)c3c(O)cc(O[C@@H]4O[C@H](CO[C@@H]5O[C@@H](C)[C@H](O)[C@@H](O)[C@H]5O)[C@@H](O)[C@H](O)[C@H]4O)cc3o2)cc1O [Diosmin],11.9%
13,O=C(Nc1ccccc1)OCC(CN1CCCCC1)OC(=O)Nc1ccccc1 (stereo not drawn) [Diperodon HCl],0.82%
14,C[N+]1(C)CCC(=C(c2ccccc2)c2ccccc2)CC1 [Diphemanil Methylsulfate],0%
15,OC(CCCN1CCCCC1)(c1ccccc1)c1ccccc1 [Diphenidol HCl],3%
16,CN1CCC(OC(c2ccccc2)c2ccccc2)CC1 [Diphenylpyraline HCl],0%
17,OCCN(CCO)c1nc(N2CCCCC2)c2nc(N(CCO)CCO)nc(N3CCCCC3)c2n1 [Dipyridamole],26.7%
18,CC[C@H]1OC(=O)[C@H](C)[C@@H](O[C@H]2C[C@@](C)(OC)[C@@H](O)[C@H](C)O2)[C@H](C)[C@@H](O[C@@H]2O[C@H](C)C[C@H](N(C)C)[C@H]2O)[C@](C)(O)C[C@@H](C)[C@@H]2N[C@@H](COCCOC)O[C@H]([C@H]2C)[C@]1(C)O [Dirithromycin],28.8%
19,O=C(O)c1cc(=O)c2c(OCC(O)COc3cccc4oc(C(=O)O)cc(=O)c34)cccc2o1 [Disodium Cromoglycate],3.63%
